From patent US11999746B2, “Compounds” (GlaxoSmithKline Intellectual Property Development Limited, priority 2014, dated 2024)

Legend:
[1] = system: proinflammatory (M1) and anti-inflammatory (M2) markers in splenic and CNS infiltrating macrophages; assay: Ex vivo analysis of M1 and M2 markers in macrophages of EAE rats by realtime PCR; set-up: species or system rat; conditions: macrophages of compound treated EAE rats, splenic macrophages harvested at day 13 post MBP-immunization
Description: Ex vivo analysis of proinflammatory (M1) and anti-inflammatory (M2) markers in control and compound treated EAE rats. Splenic macrophages were harvested at day 13 post MBP-immunization and assayed for expression of a variety of markers by realtime PCR. CNS infiltrating cells were harvested and macrophages were analyzed for expression of M1 and M2 markers by realtime PCR.

[2] = system: experimental autoimmune encephalomyelitis (EAE) rats; assay: Rat experimental autoimmune encephalomyelitis (EAE) model, preventive treatment; assay type: in vivo; conditions: compound administered from day 0 until day 22
Description: A further study was carried out to study the impact of Lp-PLA2 inhibitors on modulating M1/M2 imbalance. In this study, rats were induced to develop experimental autoimmune encephalomyelitis (EAE) by immunization with myelin basic protein (MBP) antigen and treated with a known Lp-PLA2 inhibitor: 5-((9-Methoxy-4-oxo-6,7-dihydro-4H-pyrimido[6,1-a]isoquinolin-2-yl)oxy)-2-(3-(trifluoromethyl)phenoxy)benzonitrile (See PCT application no. PCT/CN2011/001597). In this preventive treatment model, the compound was administered at day 0 (day of immunization) and continued to administer until day 22. The study lasted for 25 days. Rats were subsequently monitored for symptoms of EAE. Rats were immunized with MBP to develop EAE and symptoms were monitored daily. Plasma Lp-PLA2 activity, OxLDL, and LysoPC concentration were determined at different time points through the course of EAE.

[3] = biological target: T1, Lp-PLA2 in human plasma (Homo sapiens, UniProt Q13093); assay: (3b) Lp-PLA2 human plasma alternative Thio-PAF assay; assay type: biochemical; conditions: (3b) alternative Thio-PAF assay, pooled human plasma; Examples of 266-412 were tested here; read-out: pIC50 in the Lp-PLA2 human plasma assay (converted)
T1 construct: from tissue; host or cells: pooled human plasma
T1 sequence (Q13093 22-441): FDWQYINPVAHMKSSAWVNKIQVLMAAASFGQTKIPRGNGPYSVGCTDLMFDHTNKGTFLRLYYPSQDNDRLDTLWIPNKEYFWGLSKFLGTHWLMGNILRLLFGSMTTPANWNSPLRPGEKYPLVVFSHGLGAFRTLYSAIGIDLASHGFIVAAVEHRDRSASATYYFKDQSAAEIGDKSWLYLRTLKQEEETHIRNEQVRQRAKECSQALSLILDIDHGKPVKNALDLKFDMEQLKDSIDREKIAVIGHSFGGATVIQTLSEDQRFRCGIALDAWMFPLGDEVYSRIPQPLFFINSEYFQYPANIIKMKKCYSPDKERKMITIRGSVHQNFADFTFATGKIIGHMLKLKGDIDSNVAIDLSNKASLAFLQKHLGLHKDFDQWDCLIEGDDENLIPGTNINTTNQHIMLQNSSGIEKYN
How it was run: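 Pooled human plasma was preincubated with compound for 15 min at RT. Substrate solution (2 mM 2-thio-PAF, 52 μM CPM, 2.5 mM NEM in 50 mM HEPES pH 7.4, 150 mM NaCl, 1 mM CHAPS; pre-addition concentrations) was added, and the reaction was quenched with 5% TFA after 3 min. Fluorescence was read at ex 380/em 485 nm and fitted to give pIC50.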

[4] = biological target: T2, recombinant human Lp-PLA2 (Homo sapiens, UniProt Q13093); assay: (1b) hrThioPAF assay, recombinant human Lp-PLA2; assay type: biochemical; conditions: Examples 266-412 were tested here, one experiment or average of multiple experiments, read-out: rhLp-PLA2 (pIC50) (converted)
T2 sequence (Q13093 22-441): T1 sequence (Q13093 22-441)
How it was run: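 Fluorogenic assay: 20 pM rhLp-PLA2 in 50 mM HEPES pH 7.4, 150 mM NaCl, 1 mM CHAPS with 1:3 serially diluted compounds; substrate mix of 40 μM 2-thio-PAF, 40 μM CPM, 400 μM NEM (pre-addition levels). 20 min at 25 °C in the dark; fluorescence ex 380/em 485 nm, pIC50 by curve fitting.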

Row | IC50 [3] | IC50 [4] | SMILES | M1 (proinflammatory) markers [1] | M2 (anti-inflammatory) markers [1] | plasma Lp-PLA2 activity ([2]; rat EAE plasma) | plasma LysoPC levels ([2]; rat EAE plasma) | clinical disease (symptoms of EAE) ([2]; rats immunized with MBP, study lasted 25 days)
1 | – | – | COc1ccc2c(c1)CCn1c-2cc(Oc2ccc(Oc3cccc(C(F)(F)F)c3)c(C#N)c2)nc1=O [5-((9-Methoxy-4-oxo-6,7-dihydro-4H-pyrimido[6,1-a]isoquinolin-2-yl)oxy)-2-(3-(trifluoromethyl)phenoxy)benzonitrile] | decrease | increase | decreased | decreased | reduction in clinical disease
2 | ≤ 100 nM | 0.794 nM | O=c1nc(OCc2cc(F)c(Oc3ccnc(C(F)(F)F)c3)c(F)c2)cc2n1CC1(COC1)N2 [Example E395, 7-((3,5-difluoro-4-((2-(trifluoromethyl)pyridin-4-yl)oxy)benzyl)oxy)-1H-spiro[imidazo[1,2-c]pyrimidine-2,3′-oxetan]-5(3H)-one] | – | – | – | – | –
3 | ≤ 100 nM | ≤ 10000 nM | O=c1nc(OCc2ccc(F)c(F)c2)cc2n1CC1(COC1)N2 [Example E396, 7-((3,4-difluorobenzyl)oxy)-1H-spiro[imidazo[1,2-c]pyrimidine-2,3′-oxetan]-5(3H)-one] | – | – | – | – | –
4 | ≤ 100 nM | ≤ 10000 nM | CN1c2cc(OCc3cc(F)c(Oc4cnn(C)c4)c(F)c3)nc(=O)n2CC12COC2 [Example E397, 7-((3,5-Difluoro-4-((1-methyl-1H-pyrazol-4-yl)oxy)benzyl)oxy)-1-methyl-1H-spiro[imidazo[1,2-c]pyrimidine-2,3′-oxetan]-5(3H)-one] | – | – | – | – | –
